# Where two headings read alike, the source gives them in different places.
# Key:
# [1] = Acute toxicity, determination of the lethal dose in the mouse; settings: in vivo, po, read-out: Percent toxicity (animals which die in 72 hours)
# Description: The toxicity of the products according to the invention was studied: the products were administered orally, to batches of 5 CD Charles Rivers female mice, of weights comprised between 20 and 24 g. The toxicity was noted during the 72 hours which followed the administration of the products.
# The results expressed as a percentage of animals which die in the 72 hours following the oral administration of the products, are noted in the preceding table.
# [2] = Effect on spontaneous motility (Boissier and Simon activity test, actimetric cages); format: in vivo, mouse (CD1 Charles Rivers female mice); settings: mouse; for Locomotor activity, score percent/controls: 100 mg/kg p.os., 45 min after administration, 10 min recording, * P <= 0.05, ** P <= 0.01; for Effect on spontaneous motility (in words): oral dose of 100 mg/kg
# Description: The spontaneous motility of the animals was measured by means of the activity test developed by Boissier and Simon, Arch. Int. Pharmacocyn., 1965, 158, 212-221. The equipment is composed of actimetric cages, type Apelab (26×21.5×10 cm), traversed by two light rays which fall on a photoelectric cell. The batches were constituted by CD1 Charles Rivers female mice, of weight comprised between 20 and 24 g. The animals were placed individually in cages 45 minutes after oral administration of the products at the dose of 100 mg/kg. Each traversal by a light beam was counted by an individual counter. The scores corresponding to the movements of the animals were recorded for 10 minutes, and compared with the scores taken on batches of control animals, treated only with the vehicle (5% gum arabic).
# [3] = Antagonism of the convulsions induced by electric shock; format: in vivo, mouse (CD1 Charles Rivers mice); settings: mouse, oral, 60 min before electroshock; probit method, confidence limits in parentheses, p <= 0.05; read-out: Median effective dose (ED50) of electric shock antagonism
# Description: (§1) The anticonvulsant effect of the products in the mouse was evaluated on a model of convulsions caused by electric shock, and on 2 models of convulsions induced by chemical agents: bicuculline and 3-mercaptopropionic acid.
# The test was slightly modified from that of Swinyard et al., J. Pharm. Exp. Ther., 1952, 106, 319-330 and Asami et al. Arzneim. Forsch., 1974, 24 (1), 1563-1568. The equipment was composed of a Racia shock generator provided with two occular electrodes delivering a current of 60 volts for 0.3 seconds. The batches were constituted by 10 CD1 Charles Rivers mice of weight comprised between 20 and 24 g. The products were administered orally, 60 minutes before the electroshock.
# [4] = Antagonism to the convulsions caused by 3-mercaptopropionic acid; format: in vivo, mouse (CD Charles Rivers mice); settings: mouse, oral, 60 min before 3-mercaptopropionic acid 60 mg/kg s.c.; probit method, confidence limits in parentheses, p <= 0.05; read-out: Median effective dose (ED50) of antagonism to convulsions caused by 3-mercaptopropionic acid
# Description: as §1
# The batches were constituted by 10 CD Charles Rivers mice of weights comprised between 20 and 22 g. The products were administered orally 60 minutes before the 3-mercaptopropionic acid (60 mg/kg s.c.).
# [5] = Potentiation of narcosis with pentobarbital (loss of righting reflex); format: in vivo, mouse (CD1 Charles Rivers mice); settings: mouse, 60 min before pentobarbital 20 mg/kg i.p.; for Potentiation of pentobarbital, percent of animals in narcosis: products at 100 mg/kg p.os.; for ED50: po, p.os., probit method, confidence limits in parentheses, P <= 0.05
# Description: For the purpose of evaluating the hypnogenic power of the products, their capacity to potentiate the effects of a subnarcotic dose of pentabarbital in the mouse was studied. The batches were constituted by 10 CD1 Charles Rivers mice, of weight comprised between 20 and 24 g.
# The pentobarbital (20 mg/kg, i.p.) was administered 60 minutes after administration of the products. The drowsiness criterion taken was the loss of the righting reflex.
# [6] = Antagonism of convulsions and of mortality caused by bicucullin; format: in vivo, mouse (CD Charles Rivers mice)
# Description: as §1
# The batches were constituted by 10 CD Charles Rivers mice of weights comprised between 20 and 22 g. The products were administered orally, 60 minutes before the bicucullin (0.8 mg/kg, i.v.).
# [7] = Mus musculus, po, read-out: Median effective dose (ED50) of the antagonism to the effects of bicucullin: Mortality
# [8] = mouse, oral, 60 min before bicucullin 0.8 mg/kg i.v., probit method, confidence limits in parentheses, p < 0.05, read-out: Median effective dose (ED50) of the antagonism to the effects of bicucullin: Tonic convulsions
SMILES,mortality at 72 h ([1]; 250 mg/kg) [%],mortality at 72 h ([1]; 500 mg/kg) [%],mortality at 72 h ([1]; 1000 mg/kg) [%],"Locomotor activity, score percent/controls [2]",Effect on spontaneous motility (in words) [2],ED50 [3] [mg/kg],mortality at 72 h ([1]; 250 mg/kg p.os.) [%],mortality at 72 h ([1]; 500 mg/kg p.os.) [%],mortality at 72 h ([1]; 1000 mg/kg p.os.) [%],ED50 [4] [mg/kg],"Potentiation of pentobarbital, percent of animals in narcosis [5] [%]",ED50 [5] [mg/kg],"ED50 [6, 7] [mg/kg]","ED50 [6, 8] [mg/kg]"
"C[C@@H]1C[C@@H](Cc2cccs2)NC1=O (relative stereo) [SR 42008, 3-methyl-5-(2-thienyl-methyl)-2-pyrrolidinone]",0,0,0,-52%,sedative activity characterized by a considerable reduction in the motility,–,–,–,–,–,–,–,–,–
"C[C@H]1C[C@@H](Cc2cccs2)NC1=O (relative stereo) [SR 42009, 3-methyl-5-(2-thienyl-methyl)-2-pyrrolidinone]",0,0,40,-23%,sedative activity characterized by a considerable reduction in the motility,–,–,–,–,–,–,–,–,–
"CC1(C)CC(Cc2ccc(F)cc2)NC1=O (centres unmarked) [SR 41293, 3,3-dimethyl-5-[(4-fluoro-phenyl)-methyl]2-pyrrolidinone]",–,–,–,–,–,99,0,0,80,20,80,56,41,90
CC1CC(Cc2ccc(Cl)cc2Cl)NC1=O (centres unmarked) [SR 41676],–,–,–,-34%,sedative activity characterized by a considerable reduction in the motility,–,0,0,0,23,100,48,–,–
COc1ccc(CC2CC(C)(C)C(=O)N2)cc1OC (centres unmarked) [SR 41677],–,–,–,–,–,–,0,0,–,–,30,–,–,–
CC1CC(Cc2ccccc2Cl)NC1=O (centres unmarked) [SR 41678],–,–,–,+45%,stimulating effects of the motor activity,44,0,0,60,53,30,–,–,76
CC1(C)CC(Cc2ccccc2F)NC1=O (centres unmarked) [SR 41680],–,–,–,+99%,stimulating effects of the motor activity,51,0,0,–,54,–,–,–,–
COc1ccc(CC2CC(c3ccccc3)C(=O)N2)cc1OC (centres unmarked) [SR 41773],–,–,–,–,–,–,0,0,–,–,–,–,–,–
CC1(C)CC(Cc2ccc(Cl)cc2)NC1=O (centres unmarked) [SR 41873],–,–,–,–,–,62,0,0,–,48,10,–,85,112
CC1(C)CC(Cc2ccccc2Cl)NC1=O (centres unmarked) [SR 41880],–,–,–,–,–,–,0,0,20,–,40,–,–,–
CC1CC(Cc2ccccc2F)NC1=O (centres unmarked) [SR 41881],–,–,–,+41%,stimulating effects of the motor activity,92,0,0,100,46,30,–,–,–
"CC1CC(Cc2ccc(F)cc2)NC1=O (centres unmarked) [SR 41882, 5[(4-fluoro-phenyl)-methyl]-3-methyl-2-pyrrolidinone]",–,–,–,–,–,–,0,0,100,41,20,–,–,–
"CCC1(C)CC(Cc2ccccc2F)NC1=O (centres unmarked) [SR 42001, 3-ethyl-5-[(2-fluoro-phenyl)-methyl]-3-methyl 2-pyrrolidinone]",–,–,–,–,–,–,0,0,20,–,20,–,62,83
CCC1(C)CC(Cc2ccc(F)cc2)NC1=O (centres unmarked) [SR 42002],–,–,–,–,–,49,0,0,100,49,50,–,–,~100
Cc1ccc(CC2CC(C)(C)C(=O)N2)cc1 (centres unmarked) [SR 42003],–,–,–,–,–,–,0,0,0,–,–,–,–,–
CC1CC(Cc2c(F)cccc2Cl)NC1=O (centres unmarked) [SR 42004],–,–,–,–,–,34,0,0,0,27,30,–,> 100,~100
CC1CC(Cc2ccccc2)NC1=O (centres unmarked) [SR 42010],–,–,–,–,–,105,0,–,–,44,–,–,–,–
CCCCC1([Si](C)(C)C)CC(Cc2ccccc2)NC1=O (centres unmarked) [SR 42133],–,–,–,–,–,–,0,0,0,–,–,–,–,–
C[Si](C)(C)C1CC(Cc2ccccc2)NC1=O (centres unmarked) [SR 42134],–,–,–,–,–,–,0,0,0,–,–,–,–,–
CC1CC(Cc2ccc(Cl)cc2)NC1=O (centres unmarked) [SR 42354],–,–,–,–,–,34,0,0,–,40,–,–,66,63
CC1CC(Cc2cccc(C(F)(F)F)c2)NC1=O (centres unmarked) [SR 42401],–,–,–,–,–,39,0,0,–,–,–,–,72,62
CC1(C)CC(Cc2ccc(Cl)cc2Cl)NC1=O (centres unmarked) [SR 42508],–,–,–,–,–,50,0,0,0,–,–,–,73,~100
CC1CC(Cc2cccc(Cl)c2)NC1=O (centres unmarked) [SR 42717],–,–,–,–,–,41,0,0,100,–,–,–,59,~100
CC1(C)CC(Cc2cccc(C(F)(F)F)c2)NC1=O (centres unmarked) [SR 42725],–,–,–,–,–,34,0,0,0,–,–,–,66,~100
CC(C)C1CC(Cc2ccc(Cl)cc2)NC1=O (centres unmarked) [SR 42726],–,–,–,–,–,72,0,0,20,–,–,–,–,–
